# Assay results from the supplement of paper PMC10307832.
# Key:
# Assay in all cases: relative viability (nuclei count vs DMSO), 5 days (fraction); higher = more cells survive
# BEN = system: BEN
# How it was run: (§1)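 Medians of duplicate plates are given as relative viability. That measure is the nuclei count in treated wells divided by the count in vehicle wells. Counts were taken on 4× images of lung cancer cell lines in 1536-well plates, 5 days after pin-tool dosing the day after seeding with one drug alone or a fixed anchor-drug dose plus five library-drug doses (not always all listed) in √10 steps.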
# CAL-12T = system: CAL-12T
# How it was run: as §1
# EKVX = system: EKVX
# How it was run: as §1
# HCC-15 = system: HCC-15
# How it was run: as §1
# HCC-366 = system: HCC-366
# How it was run: as §1
# LCLC-103H = system: LCLC-103H
# How it was run: as §1
# LOU-NH91 = system: LOU-NH91
# How it was run: as §1
# NCI-H1355 = system: NCI-H1355
# How it was run: as §1
# NCI-H1395 = system: NCI-H1395
# How it was run: as §1
# NCI-H1437 = system: NCI-H1437
# How it was run: as §1
# NCI-H1563 = system: NCI-H1563
# How it was run: as §1
# NCI-H1650 = system: NCI-H1650
# How it was run: as §1
# NCI-H1651 = system: NCI-H1651
# How it was run: as §1
# NCI-H1734 = system: NCI-H1734
# How it was run: as §1
# NCI-H1755 = system: NCI-H1755
# How it was run: as §1
# NCI-H1975 = system: NCI-H1975
# How it was run: as §1
# NCI-H2023 = system: NCI-H2023
# How it was run: as §1
# NCI-H2085 = system: NCI-H2085
# How it was run: as §1
# NCI-H2342 = system: NCI-H2342
# How it was run: as §1
# NCI-H358 = system: NCI-H358
# How it was run: as §1
# NCI-H441 = system: NCI-H441
# How it was run: as §1
# NCI-H460 = system: NCI-H460
# How it was run: as §1
# NCI-H838 = system: NCI-H838
# How it was run: as §1
structure (smiles),measurement,setting,value
Clc1ccc(Nc2nnc(Cc3ccncc3)c3ccccc23)cc1 [Vatalanib] + Cc1nc(Nc2ncc(C(=O)Nc3c(C)cccc3Cl)s2)cc(N2CCN(CCO)CC2)n1 [Dasatinib] (partner 0.075 µM),relative viability,BEN; first compound 0.04 µM,0.308
same,relative viability,BEN; first compound 0.1265 µM,0.271
same,relative viability,BEN; first compound 0.4 µM,0.315
same,relative viability,BEN; first compound 1.265 µM,0.29
same,relative viability,BEN; first compound 4 µM,0.342
same,relative viability,CAL-12T; first compound 0.04 µM,0.526
same,relative viability,CAL-12T; first compound 0.1265 µM,0.351
same,relative viability,CAL-12T; first compound 0.4 µM,0.464
same,relative viability,CAL-12T; first compound 1.265 µM,0.28
same,relative viability,CAL-12T; first compound 4 µM,0.374
same,relative viability,EKVX; first compound 0.04 µM,0.651
same,relative viability,EKVX; first compound 0.1265 µM,0.5
same,relative viability,EKVX; first compound 0.4 µM,0.585
same,relative viability,EKVX; first compound 1.265 µM,0.397
same,relative viability,EKVX; first compound 4 µM,0.4
same,relative viability,HCC-15; first compound 0.04 µM,0.611
same,relative viability,HCC-15; first compound 0.1265 µM,0.628
same,relative viability,HCC-15; first compound 0.4 µM,0.628
same,relative viability,HCC-15; first compound 1.265 µM,0.524
same,relative viability,HCC-15; first compound 4 µM,0.538
same,relative viability,HCC-366; first compound 0.04 µM,0.829
same,relative viability,HCC-366; first compound 0.1265 µM,0.573
same,relative viability,HCC-366; first compound 0.4 µM,0.618
same,relative viability,HCC-366; first compound 1.265 µM,0.586
same,relative viability,HCC-366; first compound 4 µM,0.503
same,relative viability,LCLC-103H; first compound 0.04 µM,0.428
same,relative viability,LCLC-103H; first compound 0.1265 µM,0.462
same,relative viability,LCLC-103H; first compound 0.4 µM,0.543
same,relative viability,LCLC-103H; first compound 1.265 µM,0.484
same,relative viability,LCLC-103H; first compound 4 µM,0.396
same,relative viability,LOU-NH91; first compound 0.04 µM,0.563
same,relative viability,LOU-NH91; first compound 0.1265 µM,0.534
same,relative viability,LOU-NH91; first compound 1.265 µM,0.514
same,relative viability,LOU-NH91; first compound 4 µM,0.509
same,relative viability,NCI-H1355; first compound 0.04 µM,0.75
same,relative viability,NCI-H1355; first compound 0.1265 µM,0.728
same,relative viability,NCI-H1355; first compound 0.4 µM,0.778
same,relative viability,NCI-H1355; first compound 1.265 µM,0.603
same,relative viability,NCI-H1355; first compound 4 µM,0.633
same,relative viability,NCI-H1395; first compound 0.04 µM,0.456
same,relative viability,NCI-H1395; first compound 0.1265 µM,0.392
same,relative viability,NCI-H1395; first compound 0.4 µM,0.384
same,relative viability,NCI-H1395; first compound 1.265 µM,0.389
same,relative viability,NCI-H1395; first compound 4 µM,0.407
same,relative viability,NCI-H1437; first compound 0.04 µM,0.399
same,relative viability,NCI-H1437; first compound 0.1265 µM,0.41
same,relative viability,NCI-H1437; first compound 0.4 µM,0.286
same,relative viability,NCI-H1437; first compound 1.265 µM,0.349
same,relative viability,NCI-H1437; first compound 4 µM,0.417
same,relative viability,NCI-H1563; first compound 0.04 µM,0.45
same,relative viability,NCI-H1563; first compound 0.1265 µM,0.479
same,relative viability,NCI-H1563; first compound 0.4 µM,0.428
same,relative viability,NCI-H1563; first compound 1.265 µM,0.456
same,relative viability,NCI-H1563; first compound 4 µM,0.346
same,relative viability,NCI-H1650; first compound 0.04 µM,0.346
same,relative viability,NCI-H1650; first compound 0.1265 µM,0.275
same,relative viability,NCI-H1650; first compound 0.4 µM,0.354
same,relative viability,NCI-H1650; first compound 1.265 µM,0.217
same,relative viability,NCI-H1650; first compound 4 µM,0.289
same,relative viability,NCI-H1651; first compound 0.04 µM,0.317
same,relative viability,NCI-H1651; first compound 0.1265 µM,0.31
same,relative viability,NCI-H1651; first compound 0.4 µM,0.421
same,relative viability,NCI-H1651; first compound 1.265 µM,0.462
same,relative viability,NCI-H1651; first compound 4 µM,0.372
same,relative viability,NCI-H1734; first compound 0.04 µM,0.512
same,relative viability,NCI-H1734; first compound 0.1265 µM,0.432
same,relative viability,NCI-H1734; first compound 0.4 µM,0.501
same,relative viability,NCI-H1734; first compound 1.265 µM,0.47
same,relative viability,NCI-H1734; first compound 4 µM,0.422
same,relative viability,NCI-H1755; first compound 0.04 µM,0.496
same,relative viability,NCI-H1755; first compound 0.1265 µM,0.418
same,relative viability,NCI-H1755; first compound 0.4 µM,0.514
same,relative viability,NCI-H1755; first compound 1.265 µM,0.413
same,relative viability,NCI-H1755; first compound 4 µM,0.381
same,relative viability,NCI-H1975; first compound 0.04 µM,0.356
same,relative viability,NCI-H1975; first compound 0.1265 µM,0.344
same,relative viability,NCI-H1975; first compound 0.4 µM,0.434
same,relative viability,NCI-H1975; first compound 1.265 µM,0.282
same,relative viability,NCI-H1975; first compound 4 µM,0.287
same,relative viability,NCI-H2023; first compound 0.04 µM,0.671
same,relative viability,NCI-H2023; first compound 0.1265 µM,0.563
same,relative viability,NCI-H2023; first compound 0.4 µM,0.653
same,relative viability,NCI-H2023; first compound 1.265 µM,0.484
same,relative viability,NCI-H2023; first compound 4 µM,0.482
same,relative viability,NCI-H2085; first compound 0.04 µM,0.218
same,relative viability,NCI-H2085; first compound 0.1265 µM,0.226
same,relative viability,NCI-H2085; first compound 0.4 µM,0.277
same,relative viability,NCI-H2085; first compound 1.265 µM,0.188
same,relative viability,NCI-H2085; first compound 4 µM,0.258
same,relative viability,NCI-H2342; first compound 0.04 µM,0.292
same,relative viability,NCI-H2342; first compound 0.1265 µM,0.324
same,relative viability,NCI-H2342; first compound 0.4 µM,0.278
same,relative viability,NCI-H2342; first compound 1.265 µM,0.312
same,relative viability,NCI-H2342; first compound 4 µM,0.295
same,relative viability,NCI-H358; first compound 0.04 µM,0.164
same,relative viability,NCI-H358; first compound 0.1265 µM,0.194
same,relative viability,NCI-H358; first compound 0.4 µM,0.165
same,relative viability,NCI-H358; first compound 1.265 µM,0.162
same,relative viability,NCI-H358; first compound 4 µM,0.169
same,relative viability,NCI-H441; first compound 0.04 µM,0.634
same,relative viability,NCI-H441; first compound 0.1265 µM,0.627
same,relative viability,NCI-H441; first compound 0.4 µM,0.573
same,relative viability,NCI-H441; first compound 1.265 µM,0.605
same,relative viability,NCI-H441; first compound 4 µM,0.551
same,relative viability,NCI-H460; first compound 0.04 µM,0.558
same,relative viability,NCI-H460; first compound 0.1265 µM,0.498
same,relative viability,NCI-H460; first compound 0.4 µM,0.54
same,relative viability,NCI-H460; first compound 1.265 µM,0.351
same,relative viability,NCI-H460; first compound 4 µM,0.409
same,relative viability,NCI-H838; first compound 0.04 µM,0.325
same,relative viability,NCI-H838; first compound 0.1265 µM,0.277
same,relative viability,NCI-H838; first compound 0.4 µM,0.292
same,relative viability,NCI-H838; first compound 1.265 µM,0.275
same,relative viability,NCI-H838; first compound 4 µM,0.273
